Test results: US6924288B2, “Enantiomerically pure opioid diarylmethylpiperzine and methods of using same” (priority 2001, dated 2005)

Tests used:
[1] = Respiratory depression by blood gas (pCO2) monitoring in rats; format: in vivo; conditions: male, Wistar Hannover, in vivo; rat, intravenous
Method: (§1) Analgesia was assayed in rats using the tail pinch test with simultaneous monitoring of capillary blood gases (pCO2). During this testing period respiratory depression values were also obtained. Male rats (Wistar Hannover 200-300 g) were anesthetized with 2% isoflurane (J. A. Webster, Inc., Sterling, Mass. The femoral artery was cannulated with PE50 tubing for blood sampling. The external jugular vein was also cannulated with Silastic tubing for drug injection. After surgery, anesthetic gases were removed and the rat was allowed to rest in a plastic restrainer for 60 minutes to establish baseline values of blood gases.
(§2) The compounds 1-6 were administered intravenous. Nociceptive response and respiratory values were obtained for a 1-2 hour period. The femoral artery cannulation was used to draw arterial blood into a syringe pre-wetted with heparin. Samples were then analyzed with a blood gas analyzer (Ph/Gas Analyzer Synthesis 25 Model, Instrumentation Laboratory) to assess respiratory depression effects. The volume of blood taken each time was 0.15 cc. The syringes were capped immediately and the blood gases analyzed within 5 minutes. The blood exposed to air at the tip of the syringe was expelled. The blood was mixed by gentle inversion and an aliquots of 0.10 cc was injected into the blood gas analyzer.
(§3) The gas analyzer was well maintained and operated. Calibrations (low, normal and high) were done at the beginning of every day of testing. The sample lines, co-oximeter and the blood gas electrode were cleaned regularly at the end of every day of testing. Hematocrit calibration (high and low) was scheduled on a weekly basis and tubing, sample and pinch valve were replaced on a monthly basis.
(§4) The ED50 values for analgesia potency and respiratory depression were determined to calculate the safety or therapeutic ratio, which is defined as the respiratory depression ED50 divided by analgesia ED50.

rats [2] = experiment: as above; format: in vivo; conditions: rat; for Respiratory Depression % Units Baseline pCO2: 0.30 mg/kg i.v.; for Safety Ratio (respiratory depression ED50 divided by analgesia ED50): intravenous; for Mortality due to respiratory depression / Effect on blood pCO2 levels in words: i.v.
Method: as §1, §2, §3, §4

δ opioid receptor = target: T1, δ opioid receptor (Rattus norvegicus, UniProt P33533); experiment: Radioligand binding, [3H]Deltorphin II competition, rat brain membranes; conditions: read-out: Rat Brain Membrane K1 (nM) δ
T1 construct: tissue Pel-Freeze Biological Inc. (Rogers, Ark.); host or cells: rat whole brain membranes
Method: (§5) Two stereoisomerically related racemic mixtures and inclusive enantiomers were evaluated for in vitro opioid receptor affinity in rat brain membranes (μ and δ opioid) and guinea pig cerebellum (κ opioid receptor). Membranes for radioligand binding were prepared from either rat whole brain or guinea pig cerebellum, supplied by Pel-Freeze Biological Inc. (Rogers, Ark.). Tissues were homogenized in 50 mM TRIS (Tris[hydrooxymethyl]aminomethane) buffer (pH 7.4) containing 50 ug/ml soybean trypsin inhibitor, 1 mM EDTA (Ethylenediaminetetraacetic acid), and 100 μM PMSF (Phenylmethylsulfonyl fluoride). The homogenized brain tissues were centrifuged at 500×g for 30 minutes (4° C.) to remove large debris. The supernatant was polytronically sonicated for 10 seconds (P.E. setting of 2, 4° C.). Sucrose solution was then added to a final concentration of 0.35 M using a 10 mM TRIS-Sucrose buffer (pH 7.4) and the brain membranes were then centrifuged at 40,000×g for 30 minutes (4° C.). The membrane pellets were then washed twice in 10 mM TRIS buffer (pH 7.4) containing 50 μg/ml soybean trypsin inhibitor, 1 mM EDTA, and 100 μM PMSF.
(§6) Radioligand binding assays were performed in 10 mM TRIS buffer (pH 7.4) containing 50 μg/ml soybean trypsin inhibitor, 1 mM EDTA, 5 mM MgCl2, and 100 μM PMSF. Tritium-labeled DAMGO (μ), Deltorphin II (δ), or U69593 (κ) purchased from New England Nuclear were used as ligands in competitive experiments (2-3×10^−10 M final concentrations) with non-specific binding defined by 0.5×10^−6 M Naloxone (purchased from SIGMA Chemical Co.). All binding assays were run at room temperature for 90 minutes and then terminated by rapid filtration on GF/C glass fiber filters (Whatman, Hillsboro, Oreg.) with 50 mM TRIS buffer (4° C., pH 7.4) employing a Brandel Semi-automatic Cell Harvester (Model M48, Brandel, Gaithersburg, Md.). The filters were washed twice with 50 mM TRIS buffer (4° C., pH 7.4) and the filters were placed in liquid scintillation cocktail and the bound radioactivity counted on a Beckman LS 6500 scintillation counter. The potency of the compounds in inhibiting the binding of radiolabelled DAMGO (μ), Deltorphin II (δ), or U69593 (κ) was determined from full concentration-effect curves. With the computer program Prism (GraphPad Software Inc., San Diego, Calif.) the IC50 values were determined using a one-site nonlinear regression analysis of the radioligand binding data. The IC50 values were then converted to Ki values using the Cheng-Prusoff equation. (Cheng Y and Prusoff W H (1973) Relationship between the inhibition constant (K1) and the concentration of inhibitor which causes 50 percent inhibition (I50) of a enzymatic reaction. Biochem Pharm 22:3099-3108.)

[3] = target: T2, Mu receptor, mouse vas deferens (Mus musculus, UniProt P42866); experiment: Mouse vas deferens, inhibition of electrically induced contractions, mu (with TIPP and nor-BNI); format: cell-based; conditions: in presence of 3 μM TIPP and 15 nM nor-BNI; read-out: Mouse Vas Deferens ED50 (nM) μ
T2 construct: Mouse vasa deferentia (MVD), CD-1 strain, Harlan, Raleigh, N.C.) were removed from mice; tissue Harlan, Raleigh, N.C; (animals); host or cells: mouse vas deferens, CD-1 strain

rats [4] = experiment: Tail pinch test for analgesia in rats; format: in vivo; conditions: rat; for Analgesia (delay of response to tail pinch): 0.30 mg/kg i.v., cutoff 20 sec; for ED50: intravenous, 20 sec cutoff; for ED50 / Analgesic effect in words: tail pinch; for Analgesic effect in words: i.v., FIGS. 1-6
Method: as §1, §2
An artery clamp was placed on the tail (one inch from the tip of the tail) for a short duration until an escape response occurred (i.e. tail-flick or vocalization). The escape response latency was recorded by means of a stopwatch. A cutoff time of 20 sec. was used to prevent unnecessary tissue damage. […] The elapsed time to elicit a pain response was recorded as the tail pinch latency in seconds. Blood gases were monitored at approximately the same time points as the tail pinch test.
as §4

μ opioid receptor = target: T3, μ opioid receptor (Rattus norvegicus, UniProt P33535); experiment: Radioligand binding, [3H]DAMGO competition, rat brain membranes; conditions: rat brain membranes, [3H]DAMGO; read-out: Rat Brain Membrane K1 (nM) μ
T3 construct: tissue Pel-Freeze Biological Inc. (Rogers, Ark.); host or cells: rat whole brain membranes
Method: as §5, §6

[5] = target: T4, Delta receptor, mouse vas deferens (Mus musculus, UniProt P32300); experiment: Mouse vas deferens, inhibition of electrically induced contractions, delta; format: cell-based; conditions: read-out: Mouse Vas Deferens ED50 (nM) δ
T4 construct: Mouse vasa deferentia (MVD), CD-1 strain, Harlan, Raleigh, N.C.) were removed from mice; tissue Harlan, Raleigh, N.C; (animals); host or cells: mouse vas deferens, CD-1 strain
Method: The compound of formula (I) and compounds 1, 3, 4, 5 and 6 as identified above, were evaluated for in vitro opioid receptor activity in various receptor systems, including mouse vas deferens (Mouse Vas Deferens ED50), and guinea pig ileum (Guinea Pig Ileum ED50). The assay procedures used for such determinations of receptor activity are set out below.
In vitro bioassays: Mouse vasa deferentia (MVD), CD-1 strain, Harlan, Raleigh, N.C.) were removed from mice and suspended between platinum electrodes with 0.5 g of tension in organ bath chambers containing a modified Mg^++ free Krebs buffer of the following composition (millimolar): NaCl, 117.5; KCl, 4.75; CaCl2, 2.6; KH2PO4, 1.20; NaHCO3, 24.5; and glucose, 11. The buffer was saturated with 95% O2/5% CO2 and kept at 37° C. Tissues were stimulated at supramaximal voltage with 10-Hz pulse trains for 400-msec.; train interval 10 seconds; and 1.0 msec pulse duration at maximal voltage. Delta receptor activity was determined by adding appropriate concentrations of test compound to organ baths and allowing a maximal response before addition of the next higher concentration.
The ED50 values were extrapolated from curves showing the dose concentration plotted against the response (J. A. H. Lord, A. A. Waterfield, J. Hughes, H. W. Kosterlitz, Nature 267, 495, (1977)).

κ opioid receptor = target: T5, κ opioid receptor (Cavia porcellus, UniProt P41144); experiment: Radioligand binding, [3H]U69593 competition, guinea pig cerebellum membranes; conditions: read-out: Guinea Pig Brain Membrane K1 (nM) κ
T5 construct: tissue Pel-Freeze Biological Inc. (Rogers, Ark.); host or cells: guinea pig cerebellum membranes
Method: as §5, §6

## C=CCN1C[C@@H](C)N([C@@H](c2ccsc2)c2cccc(O)c2)C[C@@H]1C (racemic) [Compound 1, (±)3-((R*)-((2R*,5S*)-4-allyl-2,5-dimethyl-1-piperazinyl)(3-thienyl)methyl)phenol]
[1]
  ED50: 0.98 mg/kg
Rats [2]; 4 min.
  Respiratory Depression % Units Baseline pCO2: 21%
Rats [2]; 8 min.
  Respiratory Depression % Units Baseline pCO2: 25%
Rats [2]; 32 min.
  Respiratory Depression % Units Baseline pCO2: 7%
Rats [2]
  Safety Ratio (respiratory depression ED50 divided by analgesia ED50): 4.7
δ opioid receptor
  Ki: 1.29 nM
[3]
  EC50: 881 nM
Rats [4]; 4 min.
  Analgesia (delay of response to tail pinch): 19.5 s
Rats [4]; 8 min.
  Analgesia (delay of response to tail pinch): 10.5 s
Rats [4]; 32 min.
  Analgesia (delay of response to tail pinch): 1 s
Rats [4]
  ED50: 0.21 mg/kg
μ opioid receptor
  Ki: 0.36 nM
[5]
  EC50: 30 nM
κ opioid receptor
  Ki: 1.67 nM

## C=CCN1C[C@H](C)N([C@@H](c2ccsc2)c2cccc(O)c2)C[C@H]1C (racemic) [Compound 4, (±)3-((R*)-((2S*,5R*)-4-allyl-2,5-dimethyl-1-piperazinyl)(3-thienyl)methyl)phenol]
[1]
  ED50: 0.12 mg/kg
Rats [2]; 4 min.
  Respiratory Depression % Units Baseline pCO2: 117%
Rats [2]; 8 min.
  Respiratory Depression % Units Baseline pCO2: 91%
Rats [2]; 32 min.
  Respiratory Depression % Units Baseline pCO2: 43%
Rats [2]
  Mortality due to respiratory depression: several of the test subjects died
  Safety Ratio (respiratory depression ED50 divided by analgesia ED50): 2.4
δ opioid receptor
  Ki: 14.9 nM
[3]
  EC50: 170 nM
Rats [4]; 4 min.
  Analgesia (delay of response to tail pinch): 20 s
Rats [4]; 8 min.
  Analgesia (delay of response to tail pinch): 20 s
Rats [4]; 32 min.
  Analgesia (delay of response to tail pinch): 10 s
Rats [4]
  ED50: 0.05 mg/kg
μ opioid receptor
  Ki: 0.18 nM
[5]
  EC50: 58 nM
κ opioid receptor
  Ki: 2.34 nM

## C=CCN1C[C@@H](C)N([C@@H](c2ccsc2)c2cccc(O)c2)C[C@@H]1C (relative stereo) [Compound 1, (±)3-((R*)-((2R*,5S*)-4-allyl-2,5-dimethyl-1-piperazinyl)(3-thienyl)methyl)phenol]
Rats [4]
  Analgesic effect in words: only limited analgesia for a short time

## C=CCN1C[C@@H](C)N([C@@H](c2ccsc2)c2cccc(O)c2)C[C@@H]1C [Compound 3, (+)3-((R)-((2R,5S)-4-allyl-2,5-dimethyl-1-piperazinyl)(3-thienyl)methyl)phenol]
[1]
  ED50: > 6 mg/kg
Rats [2]; 4 min.
  Respiratory Depression % Units Baseline pCO2: 0%
Rats [2]; 8 min.
  Respiratory Depression % Units Baseline pCO2: 0%
Rats [2]; 32 min.
  Respiratory Depression % Units Baseline pCO2: 0%
Rats [2]
  Effect on blood pCO2 levels in words: no effect on blood pCO2 levels
δ opioid receptor
  Ki: 744 nM
[3]
  EC50: > 1000 nM
Rats [4]; 4 min.
  Analgesia (delay of response to tail pinch): 0 s
Rats [4]; 8 min.
  Analgesia (delay of response to tail pinch): 0 s
Rats [4]; 32 min.
  Analgesia (delay of response to tail pinch): 0 s
Rats [4]
  Analgesic effect in words: no measurable analgesic effect
  ED50: > 6 mg/kg
μ opioid receptor
  Ki: 658 nM
[5]
  EC50: > 1000 nM
κ opioid receptor
  Ki: 100 nM

## C=CCN1C[C@H](C)N([C@@H](c2ccsc2)c2cccc(O)c2)C[C@H]1C [Compound 5, (+)-3-((R)-((2S,5R)-4-allyl-2,5-dimethyl-1-piperazinyl)(3-thienyl)methyl)phenol]
[1]
  ED50: 0.067 mg/kg
Rats [2]; 4 min.
  Respiratory Depression % Units Baseline pCO2: 120%
Rats [2]; 8 min.
  Respiratory Depression % Units Baseline pCO2: 78%
Rats [2]; 32 min.
  Respiratory Depression % Units Baseline pCO2: 45%
Rats [2]
  Mortality due to respiratory depression: several of the test subjects died
  Safety Ratio (respiratory depression ED50 divided by analgesia ED50): 2.2
δ opioid receptor
  Ki: 113 nM
[3]
  EC50: 79.3 nM
Rats [4]; 4 min.
  Analgesia (delay of response to tail pinch): 20 s
Rats [4]; 8 min.
  Analgesia (delay of response to tail pinch): 20 s
Rats [4]; 32 min.
  Analgesia (delay of response to tail pinch): 20 s
Rats [4]
  ED50: 0.03 mg/kg
μ opioid receptor
  Ki: 0.75 nM
[5]
  EC50: 1.3 nM
κ opioid receptor
  Ki: 1.73 nM

## C=CCN1C[C@@H](C)N([C@H](c2ccsc2)c2cccc(O)c2)C[C@@H]1C [Compound 6, (−)3-((S)-((2R,5S)-4-allyl-2,5-dimethyl-1-piperazinyl)(3-thienyl)methyl)phenol]
[1]
  ED50: > 6 mg/kg
Rats [2]; 4 min.
  Respiratory Depression % Units Baseline pCO2: 0%
Rats [2]; 8 min.
  Respiratory Depression % Units Baseline pCO2: 0%
Rats [2]; 32 min.
  Respiratory Depression % Units Baseline pCO2: 0%
Rats [2]
  Effect on blood pCO2 levels in words: no effect on blood pCO2 levels
δ opioid receptor
  Ki: 13 nM
[3]
  EC50: > 1000 nM
Rats [4]; 4 min.
  Analgesia (delay of response to tail pinch): 0 s
Rats [4]; 8 min.
  Analgesia (delay of response to tail pinch): 0 s
Rats [4]; 32 min.
  Analgesia (delay of response to tail pinch): 0 s
Rats [4]
  Analgesic effect in words: no measurable analgesic effect
  ED50: > 6 mg/kg
μ opioid receptor
  Ki: 60 nM
[5]
  EC50: 282 nM
κ opioid receptor
  Ki: 16 nM
